Target: CDK2/Cyclin E1 (Homo sapiens (Human), UniProt P24941)
Experiment: CDK2/Cyclin E1 HTRF enzyme activity assay
Type: biochemical
Settings: 1 mM ATP; CDK2/Cyclin E1 0.25 nM; 60 minutes at room temperature
Procedure: Example A. CDK2/Cyclin E1 HTRF Enzyme Activity Assay
CDK2/Cyclin E1 enzyme activity assays utilize full-length human CDK2 co-expressed as N-terminal GST-tagged protein with FLAG-Cyclin E1 in a baculovirus expression system (Carna Product Number 04-165). Assays were conducted in white 384-well polystyrene plates in a final reaction volume of 8 μL. CDK2/Cyclin E1 (0.25 nM) was incubated with the compounds of the Examples (40 nL serially diluted in DMSO) in the presence of ATP (50 μM or 1 mM) and 50 nM ULight™-labeled eIF4E-binding protein 1 (THR37/46) peptide (PerkinElmer) in assay buffer (containing 50 mM HEPES pH 7.5, 1 mM EGTA, 10 mM MgCl2, 2 mM DTT, 0.05 mg/mL BSA, and 0.01% Tween 20) for 60 minutes at room temperature. The reactions were stopped by the addition of EDTA and Europium-labeled anti-phospho-4E-BP1 antibody (PerkinElmer), for a final concentration of 15 mM and 1.5 nM, respectively. HTRF signals were read after 1 hour at room temperature on a PHERAstar FS plate reader (BMG Labtech). Data was analyzed with IDBS XLFit and GraphPad Prism 5.0 software using a three or four parameter dose response curve to determine IC50 for each compound.

IC50, ≤ 20 nM:
CCOc1c(-c2cn[nH]c2)ccn2nc(N[C@H]3CCN(S(=O)(=O)CCCN4CCCC4)C[C@H]3C)nc12 [Example 29, 8-ethoxy-N-((3R,4S)-3-methyl-1-((3-(pyrrolidin-1-yl)propyl)sulfonyl)piperidin-4-yl)-7-(1H-pyrazol-4-yl)-[1,2,4]triazolo[1,5-a]pyridin-2-amine]
CS(=O)(=O)N1CCC(Nc2nc3c(N4CCC(C(F)(F)F)CC4)c(-c4cn[nH]c4)ccn3n2)CC1 [Example 30, N-(1-(methylsulfonyl)piperidin-4-yl)-7-(1H-pyrazol-4-yl)-8-(4-(trifluoromethyl)piperidin-1-yl)-[1,2,4]triazolo[1,5-a]pyridin-2-amine]
CS(=O)(=O)N1CCC(Nc2nc3c(N4CCCC(F)C4)c(-c4cn[nH]c4)ccn3n2)CC1 (stereo not drawn) [Example 31, 8-(3-fluoropiperidin-1-yl)-N-(1-(methylsulfonyl)piperidin-4-yl)-7-(1H-pyrazol-4-yl)-[1,2,4]triazolo[1,5-a]pyridin-2-amine]
CCOc1c(-c2cn[nH]c2)ncn2nc(NC3CCN(S(C)(=O)=O)CC3)nc12 [Example 32, 8-Ethoxy-N-(1-(methylsulfonyl)piperidin-4-yl)-7-(1H-pyrazol-4-yl)-[1,2,4]triazolo[1,5-c]pyrimidin-2-amine]
CC(C)Oc1c(-c2cn[nH]c2)ncn2nc(N[C@H]3CCN(S(C)(=O)=O)C[C@H]3C)nc12 [Example 33, 8-isopropoxy-N-((3R,4S)-3-methyl-1-(methylsulfonyl)piperidin-4-yl)-7-(1H-pyrazol-4-yl)-[1,2,4]triazolo[1,5-c]pyrimidin-2-amine]
CC1CCN(c2c(-c3cn[nH]c3)ncn3nc(NC4CCN(S(C)(=O)=O)CC4)nc23)CC1 [Example 34, 8-(4-methylpiperidin-1-yl)-N-(1-(methylsulfonyl)piperidin-4-yl)-7-(1H-pyrazol-4-yl)-[1,2,4]triazolo[1,5-c]pyrimidin-2-amine]
CS(=O)(=O)N1CCC(Nc2nc3c(-c4cccc(C(F)(F)F)c4)c(-c4cn[nH]c4)ncn3n2)CC1 [Example 35, N-(1-(methylsulfonyl)piperidin-4-yl)-7-(1H-pyrazol-4-yl)-8-(3-(trifluoromethyl)phenyl)-[1,2,4]triazolo[1,5-c]pyrimidin-2-amine]
CS(=O)(=O)N1CCC(Nc2nc3c(-c4ccc(C#N)c(F)c4)c(-c4cn[nH]c4)ncn3n2)CC1 [Example 36, 2-fluoro-4-(2-((1-(methylsulfonyl)piperidin-4-yl)amino)-7-(1H-pyrazol-4-yl)-[1,2,4]triazolo[1,5-c]pyrimidin-8-yl)benzonitrile]
CCCc1c(-c2cn[nH]c2)ccn2nc(NC3CCN(S(C)(=O)=O)CC3)nc12 [Example 37, N-(1-(methylsulfonyl)piperidin-4-yl)-8-propyl-7-(1H-pyrazol-4-yl)-[1.2.4]triazolo[1,5-a]pyridin-2-amine]
CC(C)Oc1c(-c2cn[nH]c2)ncn2nc(N[C@H]3CCN(S(=O)(=O)CCN4CCCC4)C[C@H]3C)nc12 [Example 38, 8-isopropoxy-N-((3R,4S)-3-methyl-1-((2-(pyrrolidin-1-yl)ethyl)sulfonyl)piperidin-4-yl)-7-(1H-pyrazol-4-yl)-[1,2,4]triazolo[1,5-c]pyrimidin-2-amine]
C[C@@H]1CN(S(C)(=O)=O)CC[C@@H]1Nc1nc2c(OC3CCC(F)(F)CC3)c(-c3cn[nH]c3)ccn2n1 [Example 39, 8-((4,4-difluorocyclohexyl)oxy)-N-((3R,4S)-3-methyl-1-(methylsulfonyl)piperidin-4-yl)-7-(1H-pyrazol-4-yl)-[1,2,4]triazolo[1,5-a]pyridin-2-amine]
C[C@@H]1CN(S(C)(=O)=O)CC[C@@H]1Nc1nc2c(OC3CCOC3)c(-c3cn[nH]c3)ccn2n1 (stereo partly drawn) [Example 40, N-((3R,4S)-3-methyl-1-(methylsulfonyl)piperidin-4-yl)-7-(1H-pyrazol-4-yl)-8-((tetrahydrofuran-3-yl)oxy)-[1,2,4]triazolo[1,5-a]pyridin-2-amine]
[2H]C([2H])([2H])C([2H])([2H])Oc1c(-c2cn[nH]c2)ccn2nc(N[C@H]3CCN(S(C)(=O)=O)C[C@H]3C)nc12 [Example 41, 8-(ethoxy-d5)-N-((3R,4S)-3-methyl-1-(methylsulfonyl)piperidin-4-yl)-7-(1H-pyrazol-4-yl)-[1,2,4]triazolo[1,5-a]pyridin-2-amine]
C[C@@H]1CN(S(C)(=O)=O)CC[C@@H]1Nc1nc2c(OC3CCOCC3)c(-c3cn[nH]c3)ccn2n1 [Example 42, N-((3R,4S)-3-methyl-1-(methylsulfonyl)piperidin-4-yl)-7-(1H-pyrazol-4-yl)-8-((tetrahydro-2H-pyran-4-yl)oxy)-[1,2,4]triazolo[1,5-a]pyridin-2-amine]
CC(C)Oc1c(-c2cn[nH]c2)ccn2nc(N[C@H]3CCN(S(C)(=O)=O)C[C@H]3C)nc12 [Example 43, 8-isopropoxy-N-((3R,4S)-3-methyl-1-(methylsulfonyl)piperidin-4-yl)-7-(1H-pyrazol-4-yl)-[1,2,4]triazolo[1,5-a]pyridin-2-amine]
CC(C)COc1c(-c2cn[nH]c2)ncn2nc(NC3CCN(S(C)(=O)=O)CC3)nc12 [Example 44, 8-Isobutoxy-N-(1-(methylsulfonyl)piperidin-4-yl)-7-(1H-pyrazol-4-yl)-[1,2,4]triazolo[1,5-c]pyrimidin-2-amine]
CS(=O)(=O)N1CCC(Nc2nc3c(OCC(F)F)c(-c4cn[nH]c4)ncn3n2)CC1 [Example 45, 8-(2,2-difluoroethoxy)-N-(1-(methylsulfonyl)piperidin-4-yl)-7-(1H-pyrazol-4-yl)-[1,2,4]triazolo[1,5-c]pyrimidin-2-amine]
CS(=O)(=O)N1CCC(Nc2nc3c(OCCC(F)(F)F)c(-c4cn[nH]c4)ncn3n2)CC1 [Example 46, N-(1-(Methylsulfonyl)piperidin-4-yl)-7-(1H-pyrazol-4-yl)-8-(3,3,3-trifluoropropoxy)-[1,2,4]triazolo[1,5-c]pyrimidin-2-amine]
CCCCOc1c(-c2cn[nH]c2)ncn2nc(NC3CCN(S(C)(=O)=O)CC3)nc12 [Example 47, 8-Butoxy-N-(1-(methylsulfonyl)piperidin-4-yl)-7-(1H-pyrazol-4-yl)-[1.2.4]triazolo[1,5-c]pyrimidin-2-amine]
CCCOc1c(-c2cn[nH]c2)ncn2nc(NC3CCN(S(C)(=O)=O)CC3)nc12 [Example 48, N-(1-(Methylsulfonyl)piperidin-4-yl)-8-propoxy-7-(1H-pyrazol-4-yl)-[1.2.4]triazolo[1,5-c]pyrimidin-2-amine]
CS(=O)(=O)N1CCC(Nc2nc3c(N4CCCCC4)c(-c4cn[nH]c4)ncn3n2)CC1 [Example 49, N-(1-(Methylsulfonyl)piperidin-4-yl)-8-(piperidin-1-yl)-7-(1H-pyrazol-4-yl)-[1,2,4]triazolo[1,5-c]pyrimidin-2-amine]
CC1CN(S(C)(=O)=O)CCC1Nc1nc2c(N3CCCCC3)c(-c3cn[nH]c3)ncn2n1 (stereo not drawn) [Example 50, N-(3-Methyl-1-(methylsulfonyl)piperidin-4-yl)-8-(piperidin-1-yl)-7-(1H-pyrazol-4-yl)-[1,2,4]triazolo[1,5-c]pyrimidin-2-amine]
COCCN1CCN(c2c(-c3cn[nH]c3)ncn3nc(NC4CCN(S(C)(=O)=O)CC4)nc23)CC1 [Example 51, 8-(4-(2-Methoxyethyl)piperazin-1-yl)-N-(1-(methylsulfonyl)piperidin-4-yl)-7-(1H-pyrazol-4-yl)-[1,2,4]triazolo[1,5-c]pyrimidin-2-amine]
CS(=O)(=O)N1CCC(Nc2nc3c(N4CCCC4)c(-c4cn[nH]c4)ncn3n2)CC1 [Example 52, N-(1-(Methylsulfonyl)piperidin-4-yl)-7-(1H-pyrazol-4-yl)-8-(pyrrolidin-1-yl)-[1,2,4]triazolo[1,5-c]pyrimidin-2-amine]
CC(C)Oc1c(-c2cn[nH]c2)ncn2nc(N[C@H]3CCN(S(=O)(=O)C4CC4)C[C@H]3C)nc12 [Example 53, N-((3R,4S)-1-(Cyclopropylsulfonyl)-3-methylpiperidin-4-yl)-8-isopropoxy-7-(1H-pyrazol-4-yl)-[1,2,4]triazolo[1,5-c]pyrimidin-2-amine]
CCS(=O)(=O)N1CC[C@H](Nc2nc3c(OC(C)C)c(-c4cn[nH]c4)ncn3n2)[C@H](C)C1 [Example 54, N-((3R,4S)-1-(Ethylsulfonyl)-3-methylpiperidin-4-yl)-8-isopropoxy-7-(1H-pyrazol-4-yl)-[1,2,4]triazolo[1,5-c]pyrimidin-2-amine]
CCN(C)CCCS(=O)(=O)N1CC[C@H](Nc2nc3c(OC(C)C)c(-c4cn[nH]c4)ncn3n2)[C@H](C)C1 [Example 55, N-((3R,4S)-1-((3-(Ethyl(methyl)amino)propyl)sulfonyl)-3-methylpiperidin-4-yl)-8-isopropoxy-7-(1H-pyrazol-4-yl)-[1,2,4]triazolo[1,5-c]pyrimidin-2-amine]
